In patent US20130143929A1, “FUNGICIDAL IMIDAZOLES” (EI DU PONT DE NEMOURS AND COMPANY, priority 2010, published 2013):
Marks after values point to notes of the source that are not given here.

Legend:
Format in all cases: in vivo
[1] = tested on: Puccinia recondite f. sp. tritici (the causal agent of wheat leaf rust); assay: Test A: wheat leaf rust, preventive spray on wheat seedlings, visual disease rating; conditions: wheat leaf rust, preventive spray on wheat seedlings
In short: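 Wheat seedlings were sprayed to run-off with compound suspended in acetone/water containing 250 ppm Trem 014 (200 ppm ≈ 800 g/ha; some at 40 ppm). Puccinia recondite spores were inoculated the next day. Plants were held 24 h saturated at 20° C, then 7 days at 20° C, and disease control was rated visually on a 0–100 scale against controls.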

[2] = tested on: Septoria tritici (the causal agent of wheat leaf blotch); assay: Test B: wheat leaf blotch, preventive spray on wheat seedlings, visual disease rating; conditions: wheat leaf blotch, preventive spray on wheat seedlings
In short: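 Wheat seedlings sprayed to run-off with compound suspension (acetone/water with 250 ppm Trem 014; 200 ppm ≈ 800 g/ha, some at 40 ppm), inoculated next day with Septoria tritici spores. 48 h saturated humidity at 24 °C, then 19 days at 20 °C; visual rating, 100 = full control.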

[3] = tested on: Botrytis cinerea (the causal agent of tomato Botrytis); assay: Test C: tomato Botrytis, preventive spray on tomato seedlings, visual disease rating; conditions: tomato Botrytis, preventive spray on tomato seedlings
In short: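 Test suspension (acetone/water with 250 ppm Trem 014; 200 ppm equivalent to 800 g/ha) sprayed to run-off on tomato seedlings; B. cinerea spores inoculated next day. After 48 h saturated humidity at 20° C then 3 days at 24° C, disease rated visually as % control relative to untreated controls (0–100).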

[4] = tested on: Blumeria graminis f. sp. tritici (also known as Erysiphe graminis f. sp. tritici, the causal agent of wheat powdery mildew); assay: Test D: wheat powdery mildew, preventive spray on wheat seedlings, visual disease rating; conditions: wheat powdery mildew, preventive spray on wheat seedlings
In short: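 Compound suspended in acetone/water (50/50) with 250 ppm Trem 014 and sprayed to run-off on wheat seedlings (200 ppm ≈ 800 g/ha), then inoculated next day with spore dust. Disease rated visually after 8 days at 20 °C as % control relative to untreated plants (0-100).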

[5] = no asterisk (standard test suspension concentration, not 40 ppm)
[6] = asterisk: 40 ppm test suspension

Row | SMILES | Test A rating (100 = 100% disease control, 0 = no disease control relative to the controls) [1, 5] | Test B rating (100 = 100% disease control, 0 = no disease control relative to the controls) [2, 5] | Test C rating (100 = 100% disease control, 0 = no disease control relative to the controls) [3, 5] | Test D rating (100 = 100% disease control, 0 = no disease control relative to the controls) [4, 5] | Test A rating (100 = 100% disease control, 0 = no disease control relative to the controls) [1, 6] | Test B rating (100 = 100% disease control, 0 = no disease control relative to the controls) [2, 6] | Test C rating (100 = 100% disease control, 0 = no disease control relative to the controls) [3, 6] | Test D rating (100 = 100% disease control, 0 = no disease control relative to the controls) [4, 6]
1 | Cc1nc(Br)c(C(O)c2ccc(F)cc2Cl)n1-c1c(F)cccc1Br (stereo not drawn) [compound 134] | 100% | 100% | 100% | 98% |  |  |  | 
2 | Cc1nc(Br)c(C(O)c2ccc(F)cc2Cl)n1-c1c(F)cc(F)cc1Br (stereo not drawn) [compound 136] | 100% | 100% | 100% | 79% |  |  |  | 
3 | Cc1nc(Cl)c(C(O)c2ccc(F)cc2Cl)n1-c1c(F)cc(F)cc1Br (stereo not drawn) [compound 137] |  |  |  |  | 100* % | 100* % | 100* % | 87* %
4 | Cc1cc(F)ccc1C(O)c1cnc(C)n1-c1ccc(F)cc1Br (stereo not drawn) [compound 138] | 89% | 28% | 0% | 0% |  |  |  | 
5 | Cc1ncc(C(O)c2ccc(Cl)cc2)n1-c1ccc(F)cc1Br (stereo not drawn) [compound 139] | 86% | 49% | 0% | 0% |  |  |  | 
6 | Cc1nc(Br)c(C(O)c2c(F)cccc2F)n1-c1ccc(F)cc1Cl (stereo not drawn) [compound 140] | 100% | 100% | 100% | 50% |  |  |  | 
7 | Cc1nc(Br)c(C(O)c2c(F)cc(F)cc2F)n1-c1ccc(F)cc1Cl (stereo not drawn) [compound 141] | 100% | 100% | 99% | 96% |  |  |  | 
8 | Cc1nc(Br)c(C(O)c2ccc(F)cc2Cl)n1-c1ccc(F)cc1Cl (stereo not drawn) [compound 142] | 100% | 100% | 99% | 71% |  |  |  | 
9 | COc1ccc(C(O)c2c(Cl)nc(C)n2-c2c(F)cccc2F)c(Cl)c1 (stereo not drawn) [compound 143] |  |  |  |  | 100* % | 100* % | 99* % | 99* %
10 | COc1ccc(C(O)c2c(Br)nc(C)n2-c2c(F)cccc2F)c(Cl)c1 (stereo not drawn) [compound 144] |  |  |  |  | 100* % | 100* % | 100* % | 99* %
11 | Cc1ccc(C(O)c2c(Br)nc(C)n2-c2c(F)cccc2F)c(C)c1 (stereo not drawn) [compound 145] |  |  |  |  | 100* % | 100* % | 51* % | 98* %
12 | COc1cc(F)c(C(O)c2c(Br)nc(C)n2-c2c(F)cccc2F)c(F)c1 (stereo not drawn) [compound 147] |  |  |  |  | 100* % | 100* % | 99* % | 0* %
13 | OC(c1ccc(F)cc1Cl)c1c(Br)nc(C2CC2)n1-c1c(F)cccc1Br (stereo not drawn) [compound 150] | 85% | 100% | 0% | 27% |  |  |  | 
14 | OC(c1ccc(F)cc1Cl)c1c(Cl)nc(C2CC2)n1-c1c(F)cccc1Br (stereo not drawn) [compound 151] | 74% | 100% | 0% | 64% |  |  |  | 
15 | OC(c1ccc(F)cc1F)c1cnc(C2CC2)n1-c1c(F)cccc1Br (stereo not drawn) [compound 152] | 74% | 0% | 0% | 0% |  |  |  | 
16 | COc1cc(F)c(C(O)c2c(Cl)nc(C)n2-c2ccc(F)cc2Cl)c(F)c1 (stereo not drawn) [compound 153] | 100% | 100% |  | 94% |  |  | 99* % | 
17 | OC(c1ccc(F)cc1F)c1c(Cl)nc(Cl)n1-c1c(F)cc(Cl)cc1F (stereo not drawn) [compound 154] |  |  |  |  | 100* % | 100* % | 100* % | 89* %
18 | Cc1nc(Cl)c(C(O)c2c(F)cc(F)cc2F)n1-c1ccc(F)cc1Br (stereo not drawn) [compound 155] | 100% | 100% | 99% | 0% |  |  |  | 
19 | Cc1nc(Cl)c(C(O)c2c(F)cc(Cl)cc2F)n1-c1ccc(F)cc1Cl (stereo not drawn) [compound 156] | 98% | 92% | 16% | 0% |  |  |  | 
20 | Cc1cc(Cl)ccc1C(O)c1c(Cl)nc(C)n1-c1c(F)cccc1F (stereo not drawn) [compound 159] |  |  |  |  | 99* % | 100* % | 99* % | 97* %
21 | Cc1cc(Cl)ccc1C(O)c1c(Br)nc(C)n1-c1c(F)cccc1F (stereo not drawn) [compound 161] |  |  |  |  | 92* % | 100* % | 94* % | 84* %
